Data reported in patent US20240287138A1, “CYCLIC PEPTIDES FOR INHIBITING TNF RECEPTOR 1 ACTIVITY” (Merck Sharp & Dohme LLC, priority 2023, published 2024).
Numbered stars: 1 amine (or outer) side, 2 acyl side, 3 side chain; on linkers, the order of the positions; unused ones are H or OH. Bridge positions count the residues as written; N and C are the ends. Square brackets hold non-standard residues; d marks the D form. Peptide text beside a SMILES is read from it. * marks the point of attachment. Trp(7-aza,1-CH2COOH) = N[C@@H](Cc1cn(CC(=O)O)c2ncccc12)C(=O)O; Trp(βS-Me,7-OMe) = COc1cccc2c([C@H](C)[C@H](N)C(=O)O)c[nH]c12; Phe(4-CH2SO3H) = N[C@@H](Cc1ccc(CS(=O)(=O)O)cc1)C(=O)O; Ala(indazol-1-yl) = N[C@@H](Cn1ncc2ccccc21)C(=O)O; Trp(7-CN) = N#Cc1cccc2c(C[C@H](N)C(=O)O)c[nH]c12; Trp(7-Cl) = N[C@@H](Cc1c[nH]c2c(Cl)cccc12)C(=O)O; X20 = O=C1NCc2ccc(C[C@H](N[*:1])C(=O)[*:2])cc21; Phe(4-CONH2) = NC(=O)c1ccc(C[C@H](N)C(=O)O)cc1; Phe(4-COOH) = N[C@@H](Cc1ccc(C(=O)O)cc1)C(=O)O; 4Pal(3S-Me) = C[C@@H](c1ccncc1)[C@H](N)C(=O)O; Trp(7-aza) = N[C@@H](Cc1c[nH]c2ncccc12)C(=O)O; X48 = O=C([C@H](CC12CC(O)(C1)C2)N[*:1])[*:2]; Pip(5R-OH) = O=C(O)[C@@H]1CC[C@@H](O)CN1; X1 = O=C([C@@H]1CC[C@H](N[*:1])C1)[*:2]; X45 = O=C([C@H]1CC2(CC2)CN1[*:1])[*:2]; Val(3-OH) = CC(C)(O)[C@H](N)C(=O)O; Pip(4-aza) = O=C(O)[C@@H]1CNCCN1; 4Pal = N[C@@H](Cc1ccncc1)C(=O)O; NMeE = CN[C@@H](CCC(=O)O)C(=O)O; dHyp = O=C(O)[C@H]1C[C@H](O)CN1; Ahp(2) = CCCCC[C@H](N)C(=O)O; NMeS = CN[C@@H](CO)C(=O)O; hSer = N[C@@H](CCO)C(=O)O; αMeS = C[C@](N)(CO)C(=O)O; Carboxymethyl = O=C(O)C*; Nle = CCCC[C@H](N)C(=O)O; X37 = c1cncc(N*)c1; CF3 = FC(F)(F)*; Sar = CNCC(=O)O

How the values were obtained:
[1] = target: T1, TNFα-induced NF-κB signal transduction pathway (TNFR1 signaling) in THP-1 cells (Homo sapiens, UniProt P19438); assay: THP-1 Lucia NF-κB reporter cell assay, inhibition of TNFα-induced NF-κB signaling; type: cell-based; conditions: THP-1 NF-κB Lucia reporter cells, 10 ng/mL TNFα, 16-18 h, secreted luciferase; read-out: THP-1 IC50
T1 sequence (P19438 30-455): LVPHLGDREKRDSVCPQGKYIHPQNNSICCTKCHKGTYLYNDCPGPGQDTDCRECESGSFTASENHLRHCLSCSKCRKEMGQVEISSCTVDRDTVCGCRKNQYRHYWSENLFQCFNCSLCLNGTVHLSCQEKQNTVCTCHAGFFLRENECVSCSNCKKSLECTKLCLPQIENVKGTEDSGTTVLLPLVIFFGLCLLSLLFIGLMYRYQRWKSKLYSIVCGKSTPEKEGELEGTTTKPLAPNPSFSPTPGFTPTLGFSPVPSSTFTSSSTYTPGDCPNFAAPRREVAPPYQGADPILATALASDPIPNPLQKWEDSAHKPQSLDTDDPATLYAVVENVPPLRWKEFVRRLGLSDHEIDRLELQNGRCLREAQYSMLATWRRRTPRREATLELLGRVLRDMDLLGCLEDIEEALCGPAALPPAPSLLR
Summary of the method: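 IC50 from a 4-parameter logistic fit of secreted luciferase luminescence (QUANTI-Luc), normalised to min/max controls. Reporter THP-1 cells were exposed to peptides for 1 h at 37 °C before 10 ng/mL TNFα (final) was added overnight (16–18 h).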

[2] = target: T2, human soluble TNFR1 (sTNFR1) (Homo sapiens, UniProt P19438); assay: Human sTNFR1-peptide displacement assay (LanthaScreen Eu TR-FRET binding assay)
T2 construct: made in house; host or cells: Sf21 (baculovirus)
T2 sequence (P19438 with tags, fused parts or gaps): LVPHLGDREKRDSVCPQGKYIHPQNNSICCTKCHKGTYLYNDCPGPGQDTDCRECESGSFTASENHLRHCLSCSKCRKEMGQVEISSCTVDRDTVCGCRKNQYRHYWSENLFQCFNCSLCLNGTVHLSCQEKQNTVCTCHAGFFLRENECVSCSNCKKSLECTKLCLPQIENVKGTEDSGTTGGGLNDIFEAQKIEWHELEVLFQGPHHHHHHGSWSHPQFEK
Summary of the method: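 Readout is the 665/615 nm TR-FRET ratio (Eu anti-His donor, streptavidin-Alexa647 acceptor), normalized to DMSO and saturating displacer, fit by Morrison-based five-parameter logistic for Kd^app. His-tagged sTNFR1 (1-211) prebound to 100 nM biotinylated peptide SEQ ID NO.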

Row | Structure (SMILES) | IC50 [1] | Kd [2] | IC50 [2]
1 | CCCC[C@@H]1NC(=O)CSC[C@@H](C(N)=O)NC(=O)[C@H]([C@@H](C)c2c[nH]c3c(OC)cccc23)NC(=O)CN(C)C(=O)[C@H](Cc2ccc(O)cc2)NC(=O)[C@H](Cc2ccc(C(=O)O)cc2)NC(=O)[C@](C)(CO)NC(=O)[C@H](Cc2c[nH]c3c(Cl)cccc23)NC(=O)[C@H](Cc2ccncc2)NC(=O)[C@H](CC(N)=O)NC(=O)[C@H](CCC(=O)O)N(C)C(=O)[C@H](Cn2ncc3ccccc32)NC(=O)[C@H]([C@@H](C)O)NC(=O)[C@H](CC23CC(O)(C2)C3)NC1=O [SEQ ID NO. 152] ({CH2CO}-[Nle][X48]T[Ala(indazol-1-yl)][NMeE]N[4Pal][Trp(7-Cl)][αMeS][Phe(4-COOH)]Y[Sar][Trp(βS-Me,7-OMe)]C-NH2; thioether N-14) | 5.3 nM | 1.19 nM | –
2 | CCCCC[C@@H]1NC(=O)[C@@H]2CC[C@@H](C2)NC(=O)[C@H]([C@@H](C)c2c[nH]c3c(OC)cccc23)NC(=O)CN(C)C(=O)[C@H](Cc2ccc(C(N)=O)cc2)NC(=O)[C@H](Cc2ccc(C(N)=O)cc2)NC(=O)[C@](C)(CO)NC(=O)[C@H](Cc2c[nH]c3c(C#N)cccc23)NC(=O)[C@H](Cc2ccc(C(=O)O)cc2)NC(=O)[C@H](CC(N)=O)NC(=O)[C@H]2C[C@H](O)CN2C(=O)[C@H](Cc2c[nH]c3ccccc23)NC(=O)[C@H](CCOC)NC(=O)[C@H]([C@@H](C)c2ccncc2)NC1=O [SEQ ID NO. 154] (cyclo([Ahp(2)][4Pal(3S-Me)][hSer](Me)W[dHyp]N[Phe(4-COOH)][Trp(7-CN)][αMeS][Phe(4-CONH2)][Phe(4-CONH2)][Sar][Trp(βS-Me,7-OMe)][X1])) | 1.2 nM | 0.17 nM | –
3 | CCCC[C@@H]1NC(=O)[C@@H]2CC[C@@H](C2)NC(=O)[C@H]([C@@H](C)c2c[nH]c3c(OC)cccc23)NC(=O)CN(C)C(=O)[C@H](Cc2ccc(C(N)=O)cc2)NC(=O)[C@H](Cc2ccc(C(N)=O)cc2)NC(=O)[C@](C)(CO)NC(=O)[C@H](Cc2c[nH]c3c(C#N)cccc23)NC(=O)[C@H](Cc2ccc3c(c2)C(=O)NC3)NC(=O)[C@H](CC(N)=O)NC(=O)[C@H]2C[C@H](OCC(=O)O)CN2C(=O)[C@H](Cc2cn(CC(=O)O)c3ncccc23)NC(=O)[C@@H]2CC[C@@H](O)CN2C(=O)[C@H](Cc2ccncc2)NC1=O [SEQ ID NO. 156] (cyclo([4Pal][Pip(5R-OH)][Trp(7-aza,1-CH2COOH)][dHyp](Carboxymethyl)N[X20][Trp(7-CN)][αMeS][Phe(4-CONH2)][Phe(4-CONH2)][Sar][Trp(βS-Me,7-OMe)][X1][Nle])) | 0.8 nM | 0.12 nM | –
4 | CCCC[C@@H]1NC(=O)CSC[C@@H](C(N)=O)NC(=O)[C@H]([C@@H](C)c2c[nH]c3c(OC)cccc23)NC(=O)CN(C)C(=O)[C@H](Cc2ccc(OC(F)(F)F)cc2)NC(=O)[C@H](Cc2ccc(C(=O)O)cc2)NC(=O)[C@](C)(CO)NC(=O)[C@H](Cc2c[nH]c3c(Cl)cccc23)NC(=O)[C@H](Cc2ccncc2)NC(=O)[C@H](CC(N)=O)NC(=O)[C@H](CCC(=O)O)N(C)C(=O)[C@H](Cc2c[nH]c3ncccc23)NC(=O)[C@@H]2CNCCN2C(=O)[C@H](Cc2ccncc2)NC1=O [SEQ ID NO. 158] ({CH2CO}-[Nle][4Pal][Pip(4-aza)][Trp(7-aza)][NMeE]N[4Pal][Trp(7-Cl)][αMeS][Phe(4-COOH)]Y(CF3)[Sar][Trp(βS-Me,7-OMe)]C-NH2; thioether N-14) | 5.3 nM | – | 1.79 nM
5 | CCCC[C@@H]1NC(=O)CSC[C@@H](C(N)=O)NC(=O)[C@H]([C@@H](C)c2c[nH]c3c(OC)cccc23)NC(=O)CN(C)C(=O)[C@H](Cc2ccc(OC)cc2)NC(=O)[C@H](Cc2ccc(C(=O)O)cc2)NC(=O)[C@](C)(CO)NC(=O)[C@H](Cc2c[nH]c3c(Cl)cccc23)NC(=O)[C@H](Cc2ccc(C(N)=O)cc2)NC(=O)[C@H](CC(N)=O)NC(=O)[C@H](CCC(=O)O)N(C)C(=O)[C@H](Cc2c[nH]c3ccccc23)NC(=O)[C@@H]2CNCCN2C(=O)[C@H](Cc2ccncc2)NC1=O [SEQ ID NO. 162] ({CH2CO}-[Nle][4Pal][Pip(4-aza)]W[NMeE]N[Phe(4-CONH2)][Trp(7-Cl)][αMeS][Phe(4-COOH)]Y(Me)[Sar][Trp(βS-Me,7-OMe)]C-NH2; thioether N-14) | 0.1 nM | 0.56 nM | 0.69 nM
6 | CCCC[C@@H]1NC(=O)CSC[C@@H](C(N)=O)NC(=O)[C@H]([C@@H](C)c2c[nH]c3c(OC)cccc23)NC(=O)CN(C)C(=O)[C@H](Cc2ccc(O)cc2)NC(=O)[C@H](Cc2ccc(C(=O)O)cc2)NC(=O)[C@](C)(CO)NC(=O)[C@H](Cc2c[nH]c3c(Cl)cccc23)NC(=O)[C@H](Cc2ccncc2)NC(=O)[C@H](CC(N)=O)NC(=O)[C@H](CCC(=O)O)N(C)C(=O)[C@H](Cc2c[nH]c3ncccc23)NC(=O)[C@H](C(C)(C)O)NC(=O)[C@H](Cc2ccc(C(N)=O)cc2)NC1=O [SEQ ID NO. 164] ({CH2CO}-[Nle][Phe(4-CONH2)][Val(3-OH)][Trp(7-aza)][NMeE]N[4Pal][Trp(7-Cl)][αMeS][Phe(4-COOH)]Y[Sar][Trp(βS-Me,7-OMe)]C-NH2; thioether N-14) | 3.6 nM | 0.5 nM | 0.6 nM
7 | COc1cccc2c([C@H](C)[C@@H]3NC(=O)CN(C)C(=O)[C@H](Cc4ccc(O)cc4)NC(=O)[C@H](Cc4ccc(C(=O)O)cc4)NC(=O)[C@](C)(CO)NC(=O)[C@H](Cc4c[nH]c5c(Cl)cccc45)NC(=O)[C@H](Cc4ccncc4)NC(=O)[C@H](CC(N)=O)NC(=O)[C@H](CCC(=O)O)N(C)C(=O)[C@H](Cc4c[nH]c5ccccc45)NC(=O)[C@H](CO)N(C)C(=O)[C@H](Cc4ccncc4)NC(=O)[C@H](CCC(=O)Nc4cccnc4)NC(=O)[C@@H]4CC[C@@H](C4)NC3=O)c[nH]c12 [SEQ ID NO. 166] (cyclo([4Pal][NMeS]W[NMeE]N[4Pal][Trp(7-Cl)][αMeS][Phe(4-COOH)]Y[Sar][Trp(βS-Me,7-OMe)][X1]E(X37))) | 2.7 nM | 0.44 nM | 0.5 nM
8 | CCCC[C@@H]1NC(=O)CSC[C@@H](C(N)=O)NC(=O)[C@H]([C@@H](C)c2c[nH]c3c(OC)cccc23)NC(=O)CN(C)C(=O)[C@H](Cc2ccc(O)cc2)NC(=O)[C@H](Cc2ccc(C(=O)O)cc2)NC(=O)[C@](C)(CO)NC(=O)[C@H](Cc2c[nH]c3c(Cl)cccc23)NC(=O)[C@H](Cc2ccncc2)NC(=O)[C@H](CC(N)=O)NC(=O)[C@H]2CC3(CC3)CN2C(=O)[C@H](Cc2c[nH]c3ccccc23)NC(=O)[C@@H]2CNCCN2C(=O)[C@H](Cc2ccncc2)NC1=O [SEQ ID NO. 167] ({CH2CO}-[Nle][4Pal][Pip(4-aza)]W[X45]N[4Pal][Trp(7-Cl)][αMeS][Phe(4-COOH)]Y[Sar][Trp(βS-Me,7-OMe)]C-NH2; thioether N-14) | 2.6 nM | 0.48 nM | –
9 | CCCC[C@@H]1NC(=O)[C@@H]2CC[C@@H](C2)NC(=O)[C@H]([C@@H](C)c2c[nH]c3c(OC)cccc23)NC(=O)CN(C)C(=O)[C@H](Cc2ccc(O)cc2)NC(=O)[C@H](Cc2ccc(C(=O)O)cc2)NC(=O)[C@](C)(CO)NC(=O)[C@H](Cc2c[nH]c3c(Cl)cccc23)NC(=O)[C@H](Cc2ccc(CS(=O)(=O)O)cc2)NC(=O)[C@H](CC(N)=O)NC(=O)[C@H](CCC(=O)O)N(C)C(=O)[C@H](Cc2c[nH]c3ccccc23)NC(=O)[C@@H]2CNCCN2C(=O)[C@H](Cc2ccncc2)NC1=O [SEQ ID NO. 171] (cyclo([4Pal][Pip(4-aza)]W[NMeE]N[Phe(4-CH2SO3H)][Trp(7-Cl)][αMeS][Phe(4-COOH)]Y[Sar][Trp(βS-Me,7-OMe)][X1][Nle])) | 0.9 nM | 0.19 nM | –
